Experimental data as given in PubChem BioAssay AID1745844 (Carcinogenic Potency Database (CPDB), 2022).
Calls of active or inactive are those of the source. The rule behind the calls is not given here.

Tested on: rodent lifetime carcinogenesis bioassay, tumor incidence TD50
Assay: carcinogenic potency in animals, long-term in vivo studies, CPDB compilation (AID 1745844)

For `Cc1cc(O)c(C(C)(C)C)cc1Sc1cc(C(C)(C)C)c(O)cc1C`, the TD50 (mouse, strain B6C3F1, females, in feed, site: any site (literature study), lesion: several types, types named in the paper, dosed 104 weeks, study length 104 weeks) was 484 mg/kg/day (inactive), the TD50 (mouse, strain B6C3F1, females, in feed, site: lung, lesion: alveolar/bronchiolar adenoma + alveolar/bronchiolar carcinoma, dosed 104 weeks, study length 104 weeks) was 2020 mg/kg/day and the carcinogen call (mouse, strain B6C3F1, males, in feed, site: any site (literature study), lesion: several types, types named in the paper, dosed 104 weeks, study length 104 weeks) was “negative (inactive)”. It also gave a TD50 (rat, strain Fischer 344, females, in feed, site: any site (literature study), lesion: several types, types named in the paper, dosed 104 weeks, study length 104 weeks) of 196 mg/kg/day, a TD50 (rat, strain Fischer 344, females, in feed, site: liver, lesion: hepatocellular adenoma + hepatoblastoma + hepatocellular carcinoma, dosed 104 weeks, study length 104 weeks) of 3990 mg/kg/day and a TD50 (rat, strain Fischer 344, females, in feed, site: thyroid gland, lesion: c-cell adenoma + c-cell adenoma, bilateral, dosed 104 weeks, study length 104 weeks) of 361 mg/kg/day. The TD50 (rat, strain Fischer 344, females, in feed, site: thyroid gland, lesion: c-cell adenoma + c-cell carcinoma + c-cell adenoma, bilateral, dosed 104 weeks, study length 104 weeks) was 325 mg/kg/day, the TD50 (rat, strain Fischer 344, females, in feed, site: uterus, lesion: endometrial stromal polyp + endometrial stromal sarcoma, dosed 104 weeks, study length 104 weeks) was 262 mg/kg/day (inactive) and the TD50 (rat, strain Fischer 344, females, in feed, site: uterus, lesion: endometrial stromal polyp, dosed 104 weeks, study length 104 weeks) was 286 mg/kg/day. For the same compound, the TD50 (rat, strain Fischer 344, males, in feed, site: any site (literature study), lesion: several types, types named in the paper, dosed 104 weeks, study length 104 weeks) was 449 mg/kg/day (inactive) and the TD50 (rat, strain Fischer 344, males, in feed, site: liver, lesion: hepatocellular adenoma + hepatoblastoma + hepatocellular carcinoma, dosed 104 weeks, study length 104 weeks) was 324 mg/kg/day.

`O=Nc1ccc(Nc2ccccc2)cc1` was tested, and the TD50 (mouse, strain B6C3F1, females, in feed, site: any site (literature study), lesion: several types, types named in the paper, dosed 53 weeks, study length 92 weeks) was 2170 mg/kg/day (inactive), the TD50 (mouse, strain B6C3F1, females, in feed, site: liver, lesion: hepatocellular adenoma + hepatocellular carcinoma + neoplastic nodule, dosed 53 weeks, study length 92 weeks) was 2250 mg/kg/day and the TD50 (mouse, strain B6C3F1, females, in feed, site: lung, lesion: alveolar/bronchiolar adenoma + alveolar/bronchiolar carcinoma, dosed 53 weeks, study length 92 weeks) was 5410 mg/kg/day. For the same compound, the TD50 (mouse, strain B6C3F1, males, in feed, site: any site (literature study), lesion: several types, types named in the paper, dosed 53 weeks, study length 92 weeks) was 260 mg/kg/day, the TD50 (mouse, strain B6C3F1, males, in feed, site: liver, lesion: hepatocellular adenoma + hepatocellular carcinoma + neoplastic nodule, dosed 53 weeks, study length 92 weeks) was 340 mg/kg/day and the TD50 (mouse, strain B6C3F1, males, in feed, site: liver, lesion: hepatocellular adenoma + hepatocellular carcinoma, dosed 53 weeks, study length 92 weeks) was 340 mg/kg/day. The TD50 (mouse, strain B6C3F1, males, in feed, site: liver, lesion: hepatocellular carcinoma, dosed 53 weeks, study length 92 weeks) was 661 mg/kg/day, the TD50 (mouse, strain B6C3F1, males, in feed, site: lung, lesion: alveolar/bronchiolar adenoma + alveolar/bronchiolar carcinoma, dosed 53 weeks, study length 92 weeks) was 3520 mg/kg/day and the carcinogen call (rat, strain Fischer 344, females, in feed, site: any site (literature study), lesion: several types, types named in the paper, dosed 78 weeks, study length 105 weeks) was “negative (inactive)”. It also gave a TD50 (rat, strain Fischer 344, females, in feed, site: liver, lesion: hepatocellular adenoma + hepatocellular carcinoma + neoplastic nodule, dosed 78 weeks, study length 105 weeks) of 1210 mg/kg/day, a TD50 (rat, strain Fischer 344, males, in feed, site: liver, lesion: hepatocellular adenoma + hepatocellular carcinoma + neoplastic nodule, dosed 78 weeks, study length 105 weeks) of 201 mg/kg/day and a TD50 (rat, strain Fischer 344, males, in feed, site: liver, lesion: hepatocellular carcinoma + neoplastic nodule, dosed 78 weeks, study length 105 weeks) of 201 mg/kg/day.

`O=[N+]([O-])c1cccc2ccccc12` was tested, and the carcinogen call (mouse, strain B6C3F1, females, in feed, site: any site (literature study), lesion: several types, types named in the paper, dosed 78 weeks, study length 96 weeks) was “negative (inactive)”, the TD50 (mouse, strain B6C3F1, females, in feed, site: lung, lesion: alveolar/bronchiolar adenoma + alveolar/bronchiolar carcinoma, dosed 78 weeks, study length 96 weeks) was 682 mg/kg/day and the carcinogen call (mouse, strain B6C3F1, males, in feed, site: any site (literature study), lesion: several types, types named in the paper, dosed 78 weeks, study length 96 weeks) was “negative (inactive)”. The carcinogen call (rat, strain Fischer 344, females, in feed, site: any site (literature study), lesion: several types, types named in the paper, dosed 78 weeks, study length 107 weeks) was “negative (inactive)”, the carcinogen call (rat, strain Fischer 344, males, in feed, site: any site (literature study), lesion: several types, types named in the paper, dosed 78 weeks, study length 107 weeks) was “negative (inactive)” and the TD50 (rat, strain Fischer 344, males, in feed, site: liver, lesion: hepatocellular adenoma + hepatocellular carcinoma + neoplastic nodule, dosed 78 weeks, study length 107 weeks) was 509 mg/kg/day.

`C=CC(=O)c1ccc2c(c1)OCO2` was tested, and the carcinogen call (rat, strain Charles River CD (Sprague-Dawley), males, in feed, site: liver, lesion: carcinoma, dosed 73 weeks, study length 95 weeks) was “negative (inactive)”.

`NCCS(=O)(=O)O` was tested, and the carcinogen call (rat, strain Wistar, females, in feed, site: mammary gland, lesion: fibroadenoma, dosed 78 weeks, study length 78 weeks) was “negative (inactive)” and the carcinogen call (rat, strain Wistar, males, in feed, site: mammary gland, lesion: fibroadenoma, dosed 78 weeks, study length 78 weeks) was “negative (inactive)”.

With `CS(=O)(=O)OCCCCOS(C)(=O)=O` the TD50 (rat, strain BR 46, males, by gavage, site: any site (literature study), lesion: benign tumor, dosed 52 weeks, study length 104 weeks) was 0.642 mg/kg/day, the TD50 (rat, strain BR 46, males, by gavage, site: any site (literature study), lesion: malignant tumor, dosed 52 weeks, study length 104 weeks) was 0.117 mg/kg/day and the TD50 (rat, strain BR 46, males, by gavage, site: any site (literature study), lesion: several types, types named in the paper, dosed 52 weeks, study length 104 weeks) was 0.0931 mg/kg/day.

For `CCC(C)[N+](=O)[O-]` (configuration not stated), the TD50 (rat, strain Fischer 344, males, by gavage, site: liver, lesion: hepatocellular carcinoma, dosed 50 weeks, study length 83 weeks) was 2.86 mg/kg/day.

With `C[C@@H]1Cc2c(Cl)cc(C(=O)N[C@@H](Cc3ccccc3)C(=O)O)c(O)c2C(=O)O1` the TD50 (mouse, strain B6C3F1, females, in feed, site: liver, lesion: hepatocellular adenoma, dosed 104 weeks, study length 104 weeks) was 109 mg/kg/day, the TD50 (mouse, strain B6C3F1, females, in feed, site: liver, lesion: hepatocellular carcinoma, dosed 104 weeks, study length 104 weeks) was 34.8 mg/kg/day and the TD50 (mouse, strain B6C3F1, males, in feed, site: kidney, lesion: adenoma, dosed 104 weeks, study length 104 weeks) was 4.64 mg/kg/day. For the same compound, the TD50 (mouse, strain B6C3F1, males, in feed, site: kidney, lesion: carcinoma, dosed 104 weeks, study length 104 weeks) was 10.3 mg/kg/day, the TD50 (mouse, strain B6C3F1, males, in feed, site: kidney, lesion: several types, types named in the paper, dosed 104 weeks, study length 104 weeks) was 3.53 mg/kg/day and the TD50 (mouse, strain B6C3F1, males, in feed, site: liver, lesion: hepatocellular adenoma, dosed 104 weeks, study length 104 weeks) was 48.1 mg/kg/day. For the same compound, the TD50 (mouse, strain B6C3F1, males, in feed, site: liver, lesion: hepatocellular carcinoma, dosed 104 weeks, study length 104 weeks) was 58.7 mg/kg/day, the carcinogen call (rat, strain DA (from Hannover), females, by gavage, site: kidney, lesion: one or several types, types not named, dosed 110 weeks, study length 110 weeks) was “negative (inactive)” and the TD50 (rat, strain DA (from Hannover), males, by gavage, site: kidney, lesion: adenocarcinoma, dosed 110 weeks, study length 110 weeks) was 0.368 mg/kg/day. For the same compound, the TD50 (rat, strain DA (from Hannover), males, by gavage, site: urinary bladder, lesion: transitional-cell carcinoma, dosed 110 weeks, study length 110 weeks) was 1.18 mg/kg/day, the TD50 (rat, strain Fischer 344, females, by gavage, site: kidney + mammary gland, lesion: tubule adenoma + tubule carcinoma + fibroadenoma, dosed 103 weeks, study length 104 weeks) was 0.386 mg/kg/day and the TD50 (rat, strain Fischer 344, females, by gavage, site: kidney, lesion: tubule adenoma + tubule carcinoma, dosed 103 weeks, study length 104 weeks) was 0.485 mg/kg/day. For the same compound, the TD50 (rat, strain Fischer 344, females, by gavage, site: kidney, lesion: tubule adenoma, dosed 103 weeks, study length 104 weeks) was 0.813 mg/kg/day, the TD50 (rat, strain Fischer 344, females, by gavage, site: kidney, lesion: tubule carcinoma, dosed 103 weeks, study length 104 weeks) was 1.31 mg/kg/day and the TD50 (rat, strain Fischer 344, females, by gavage, site: mammary gland, lesion: fibroadenoma, dosed 103 weeks, study length 104 weeks) was 0.55 mg/kg/day. For the same compound, the TD50 (rat, strain Fischer 344, males, by gavage, site: any site (literature study), lesion: several types, types named in the paper, dosed 103 weeks, study length 104 weeks) was 0.0863 mg/kg/day, the TD50 (rat, strain Fischer 344, males, by gavage, site: kidney, lesion: tubule adenoma + tubule carcinoma + tubule epithelium adenoma + tubular-cell carcinoma, bilateral, dosed 103 weeks, study length 104 weeks) was 0.0579 mg/kg/day and the TD50 (rat, strain Fischer 344, males, by gavage, site: kidney, lesion: tubule adenoma + tubule epithelium adenoma, dosed 103 weeks, study length 104 weeks) was 0.241 mg/kg/day. For the same compound, the TD50 (rat, strain Fischer 344, males, by gavage, site: kidney, lesion: tubule carcinoma + tubular-cell carcinoma, bilateral, dosed 103 weeks, study length 104 weeks) was 0.0756 mg/kg/day, the TD50 (rat, strain Fischer 344, males, by gavage, site: liver, lesion: hepatocellular adenoma + hepatocellular carcinoma + neoplastic nodule, dosed 103 weeks, study length 104 weeks) was 2.5 mg/kg/day and the TD50 (rat, strain Lewis, females, by gavage, site: kidney, lesion: adenocarcinoma, dosed 110 weeks, study length 110 weeks) was 2.56 mg/kg/day. The TD50 (rat, strain Lewis, males, by gavage, site: kidney, lesion: adenocarcinoma, dosed 110 weeks, study length 110 weeks) was 1.25 mg/kg/day and the carcinogen call (rat, strain Wistar, both sexes, by gavage, site: any site (literature study), lesion: one or several types, types not named, dosed 50 weeks, study length 110 weeks) was “negative (inactive)”.

Compound `CC(=O)Nc1ccc(C(=O)CCl)cc1` has a TD50 (mouse, strain B6C3F1, females, in feed, site: any site (literature study), lesion: several types, types named in the paper, dosed 90 weeks, study length 105 weeks) of 3500 mg/kg/day, a TD50 (mouse, strain B6C3F1, females, in feed, site: liver, lesion: hepatocellular adenoma + hepatocellular carcinoma + neoplastic nodule, dosed 90 weeks, study length 105 weeks) of 4700 mg/kg/day and a TD50 (mouse, strain B6C3F1, females, in feed, site: liver, lesion: hepatocellular adenoma, dosed 90 weeks, study length 105 weeks) of 4700 mg/kg/day. The TD50 (mouse, strain B6C3F1, females, in feed, site: lung, lesion: alveolar/bronchiolar adenoma + alveolar/bronchiolar carcinoma, dosed 90 weeks, study length 105 weeks) was 3020 mg/kg/day, the carcinogen call (mouse, strain B6C3F1, males, in feed, site: any site (literature study), lesion: several types, types named in the paper, dosed 90 weeks, study length 105 weeks) was “negative (inactive)” and the carcinogen call (rat, strain Fischer 344, females, in feed, site: any site (literature study), lesion: several types, types named in the paper, dosed 87 weeks, study length 103 weeks) was “negative (inactive)”. The TD50 (rat, strain Fischer 344, males, in feed, site: any site (literature study), lesion: several types, types named in the paper, dosed 87 weeks, study length 103 weeks) was 325 mg/kg/day (inactive) and the TD50 (rat, strain Fischer 344, males, in feed, site: liver, lesion: hepatocellular adenoma + hepatocellular carcinoma + neoplastic nodule, dosed 87 weeks, study length 103 weeks) was 2470 mg/kg/day.
